Patent US9890139B2, “CYP17 inhibitors/antiandrogens” (Orion Corporation, priority 2013, dated 2018)
Like-named read-outs stand apart in the source and are kept apart here.

Experiments:
[1] = target: T1, full-length human AR (Homo sapiens, UniProt P10275); test: AR antagonism, reporter gene assay in hAR/HEK293 cells; assay type: cell-based; settings: HEK293 cells stably transfected with full-length human AR and androgen responsive luciferase reporter; co-treated with submaximal testosterone (usually 0.45 nM); 1% DMSO; triplicates
T1 construct: expression vector encoding full-length human AR; expressed in transfected cells; host or cells: HEK293 (hAR/HEK293 cells)
T1 sequence (P10275 1-920): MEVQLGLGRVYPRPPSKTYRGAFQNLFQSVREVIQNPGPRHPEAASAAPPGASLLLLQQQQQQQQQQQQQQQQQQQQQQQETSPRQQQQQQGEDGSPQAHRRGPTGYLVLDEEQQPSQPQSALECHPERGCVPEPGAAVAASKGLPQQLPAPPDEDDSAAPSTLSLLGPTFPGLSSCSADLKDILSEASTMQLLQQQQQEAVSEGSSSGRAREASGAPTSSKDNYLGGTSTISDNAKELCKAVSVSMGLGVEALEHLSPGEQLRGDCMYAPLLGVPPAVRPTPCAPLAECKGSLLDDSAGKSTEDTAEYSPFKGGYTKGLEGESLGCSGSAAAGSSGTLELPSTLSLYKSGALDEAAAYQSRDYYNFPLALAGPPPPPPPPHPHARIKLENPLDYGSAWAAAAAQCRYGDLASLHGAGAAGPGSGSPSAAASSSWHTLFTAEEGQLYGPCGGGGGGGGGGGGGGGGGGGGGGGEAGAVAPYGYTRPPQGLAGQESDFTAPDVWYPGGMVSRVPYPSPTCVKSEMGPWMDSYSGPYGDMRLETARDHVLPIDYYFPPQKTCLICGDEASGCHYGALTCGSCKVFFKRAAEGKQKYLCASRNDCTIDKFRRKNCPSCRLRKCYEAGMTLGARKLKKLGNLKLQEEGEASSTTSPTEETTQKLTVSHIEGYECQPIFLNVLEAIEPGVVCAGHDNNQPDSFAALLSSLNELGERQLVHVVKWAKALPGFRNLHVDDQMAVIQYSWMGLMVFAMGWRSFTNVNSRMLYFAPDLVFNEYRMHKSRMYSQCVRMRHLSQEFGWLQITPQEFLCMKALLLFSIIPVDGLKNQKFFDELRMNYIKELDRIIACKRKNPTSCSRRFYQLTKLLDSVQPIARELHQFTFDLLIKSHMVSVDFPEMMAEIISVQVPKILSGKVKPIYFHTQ
Experimental: Antagonism of test compounds for AR was measured by reporter gene assay in human embryonic kidney (HEK293) cells stably transfected with an expression vector encoding full-length human AR and androgen responsive luciferase reporter gene construct (hAR/HEK293 cells). To determine antagonism for hAR, the cells were treated simultaneously with increasing concentrations of the test compound and submaximal concentration of testosterone (usually 0.45 nM). The final DMSO concentration was 1%. All test compounds were studied in triplicates. The cells were incubated for […] before measurement of luciferase activity using Luciferase Assay System (Promega Corporation).

[2] = target: T2, 17,20 lyase (CYP17) (Homo sapiens, UniProt P05093); test: 17,20 lyase (CYP17) inhibition, acetic acid release assay (AARA) on H295R cells; assay type: cell-based
T2 construct: endogenous in cells; host or cells: H295R human adrenocortical carcinoma cells
T2 sequence (P05093 1-508): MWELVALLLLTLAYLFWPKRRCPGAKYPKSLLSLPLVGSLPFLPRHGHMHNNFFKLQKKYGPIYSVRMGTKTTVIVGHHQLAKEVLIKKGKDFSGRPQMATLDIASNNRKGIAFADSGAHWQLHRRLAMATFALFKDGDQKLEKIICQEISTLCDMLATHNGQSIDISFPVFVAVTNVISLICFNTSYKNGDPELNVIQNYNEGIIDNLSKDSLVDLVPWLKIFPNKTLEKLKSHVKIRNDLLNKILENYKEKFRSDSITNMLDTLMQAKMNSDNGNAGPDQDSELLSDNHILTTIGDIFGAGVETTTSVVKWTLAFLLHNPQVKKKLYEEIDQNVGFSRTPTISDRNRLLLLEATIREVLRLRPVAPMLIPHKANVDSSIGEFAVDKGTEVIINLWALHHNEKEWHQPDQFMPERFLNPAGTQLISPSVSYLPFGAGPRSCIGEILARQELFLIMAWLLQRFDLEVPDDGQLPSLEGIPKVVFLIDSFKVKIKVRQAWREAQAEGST
Experimental: The ability of the test compounds to inhibit 17,20 lyase catalysed conversion of 17α-hydroxypregnenolone to dehydroepiandrosterone and acetic acid was measured by acetic acid release assay (AARA) on human H295R adrenocortical carcinoma cell line (Grigoryev, D. N. et al., Analytical Biochemistry 1999; 267:319-330). […] The final DMSO concentration was 1%. Cell culture medium was extracted with dextran-coated charcoal suspension (Isomaa, V. et al., Endocrinology 1982; 111(3):833-843). ^3H-acetic acid was determined by mixing 100 μl of supernatant fraction in 200 μl of scintillation fluid (OptiPhase SuperMix, Perkin Elmer). Radioactivity was measured using a Microbeta scintillation counter (1450 MicroBeta Trilux, Wallac). All the test compounds were studied in quadruplicates.

[3] = human H295R adrenocortical carcinoma cells, overnight (16-19 h) with 17α-[21-3H]hydroxypregnenolone, 3H-acetic acid release, 1% DMSO, quadruplicates, read-out: CYP17 inhibition IC50

IC50 [2, 3] [nM] | Structure (SMILES) | IC50 [1] [nM] | IC50 [2] [nM]
– | CCN(c1ccc(C#N)c(C(F)(F)F)c1)C1CC=C(c2cncn2C2CC2)C1 (racemic) [Ex. 53, 4-((3-(1-Cyclopropyl-1H-imidazol-5-yl)cyclopent-3-enyl)(ethyl)amino)-2-(trifluoromethyl)benzonitrile] | 57 | 19
14 | CN(c1ccc(C#N)c(C(F)(F)F)c1)C1C=C(n2ccnc2)CCC1(C)C (racemic) [Ex. 130 racemate, 4-{[3-(1H-Imidazol-1-yl)-6,6-dimethylcyclohex-2-enyl](methyl)amino}-2-(trifluoromethyl)benzonitrile] | 65 | –
– | CCn1cncc1C1=CCC(N(CC2CC2)c2ccc(C#N)c(C(F)(F)F)c2)C1 (racemic) [Ex. 226 racemate, 4-((Cyclopropylmethyl)(3-(1-ethyl-1H-imidazol-5-yl)cyclopent-3-en-1-yl)-amino)-2-(trifluoromethyl)benzonitrile] | 29 | 43
– | CCN(c1ccc(C#N)c(Cl)c1)C1CC=C(c2cncn2CC)C1 (racemic) [Ex. 227 racemate, 2-Chloro-4-(ethyl(3-(1-ethyl-1H-imidazol-5-yl)cyclopent-3-en-1-yl)amino)-benzonitrile] | 57 | 19
– | CCN(c1ccc(C#N)c(C(F)(F)F)c1)[C@H]1CCC[C@@H](c2ccncc2)C1 (relative stereo) [Ex. 61, cis-4-(Ethyl(3-(pyridin-4-yl)cyclohexyl)amino)-2-(trifluoromethyl)benzonitrile] | 35 | 108
– | CN(c1ccc(C#N)c(C(F)(F)F)c1)[C@@H]1C=C(n2ccnc2)[C@H](O)CC1(C)C (relative stereo) [Ex. 236, Cis-4-((4-hydroxy-3-(1H-imidazol-1-yl)-6,6-dimethylcyclohex-2-enyl)-(methyl)amino)-2-(trifluoromethyl)benzonitrile] | 124 | 247
– | CCN(c1ccc(C#N)c(Cl)c1C)C1CCCC(n2ccnc2)C1 (single isomer, unassigned) [Ex. 13, 4-((3-(1H-imidazol-1-yl)cyclohexyl)(ethyl)amino)-2-chloro-3-methylbenzonitrile] | 60 | 92
23 | CCN(c1ccc(C#N)c(C(F)F)c1)C1C=C(n2ccnc2)CCC1(C)C (single isomer, unassigned) [Ex. 31 enantiomer 1, 4-((3-(1H-imidazol-1-yl)-6,6-dimethylcyclohex-2-enyl)(ethyl)amino)-2-(difluoromethyl)benzonitrile] | – | –
– | CCN(c1ccc(C#N)c(C(F)(F)F)c1)C1CC(n2ccnc2)CCC1(C)C (single isomer, unassigned) [Ex. 46 cis-enantiomer 2, 4-((5-(1H-Imidazol-1-yl)-2,2-dimethylcyclohexyl)(ethyl)amino)-2-(trifluoromethyl)benzonitrile] | 40 | 49
97 | CN(c1ccc(C#N)c(C(F)(F)F)c1)C1C(O)C(c2c[nH]cn2)=CCC1(C)C (single isomer, unassigned) [Ex. 245, 4-{[2-Hydroxy-3-(1H-imidazol-4-yl)-6,6-dimethylcyclohex-3-enyl](methyl)-amino}-2-(trifluoromethyl)benzonitrile] | – | –
66 | CCN(c1ccc(C#N)c(C(F)(F)F)c1)C1CCC=C(c2cccnc2)C1(C)C (stereo not drawn) [Ex. 97, 4-((2,2-dimethyl-3-(pyridin-3-yl)cyclohex-3-en-1-yl)(ethyl)amino)-2-(trifluoromethyl)benzonitrile] | – | –
36 | CCN(c1ccc(C#N)c(C(F)(F)F)c1)C1CCC=C(c2c[nH]cn2)C1(C)C (stereo not drawn) [Ex. 100, 4-((3-(1H-imidazol-4-yl)-2,2-dimethylcyclohex-3-en-1-yl)(ethyl)amino)-2-(trifluoromethyl)benzonitrile] | – | –
7 | CCN(c1ccc(C#N)c(Cl)c1)C1CC=C(c2c[nH]cn2)C1 (stereo not drawn) [Ex. 133, 4-((3-(1H-Imidazol-4-yl)cyclopent-3-en-1-yl)(ethyl)amino)-2-chlorobenzonitrile] | – | –
17 | CCN(c1ccc(C#N)c(C(F)(F)F)c1)C1CC=C(c2c[nH]cn2)C1 (stereo not drawn) [Ex. 150, 4-((3-(1H-imidazol-4-yl)cyclopent-3-en-1-yl)(ethyl)amino)-2-(trifluoromethyl)benzonitrile] | – | –
10 | CN(c1ccc(C#N)c(C(F)(F)F)c1)C1C=C(c2cncn2CCOCc2ccccc2)CCC1(C)C (stereo not drawn) [Ex. 220, 4-((3-(1-(2-(benzyloxy)ethyl)-1H-imidazol-5-yl)-6,6-dimethylcyclohex-2-en-1-yl)(methyl)amino)-2-(trifluoromethyl)benzonitrile] | – | –

Structure (SMILES) | IC50 [2, 3] [nM] | IC50 [1] [nM] | IC50 [2] [nM]
CN(c1ccc(C#N)c(Cl)c1)C1CC(c2c[nH]cn2)=CCC1(C)C (single isomer, unassigned) [Ex. 2 enantiomer 1, 4-((3-(1H-imidazol-4-yl)-6,6-dimethylcyclohex-3-enyl)(methyl)amino)-2-chlorobenzonitrile] | 27 | – | –
CN(c1ccc(C#N)c(C(F)(F)F)c1)C1C=C(n2ccnc2)CCC1 (single isomer, unassigned) [Ex. 6 enantiomer 1, 4-((3-(1H-imidazol-1-yl)cyclohex-2-enyl)(methyl)amino)-2-(trifluoromethyl)benzonitrile] | 74 | – | –
CN(c1ccc(C#N)c(C(F)(F)F)c1)C1CC(n2ccnc2)CCC1(C)C (single isomer, unassigned) [Ex. 47 cis-enantiomer 3, 4-((5-(1H-Imidazol-1-yl)-2,2-dimethylcyclohexyl)(methyl)amino)-2-(trifluoromethyl)benzonitrile] | 18 | – | –
CN(c1ccc(C#N)c(C(F)(F)F)c1)C1CC(c2c[nH]cn2)=CCC1(C)C (single isomer, unassigned; diastereomer 1) [Ex. 244 diastereomer 1, 4-{[3-(1H-Imidazol-4-yl)-6,6-dimethylcyclohex-3-enyl](methyl)amino}-2-(trifluoromethyl)benzonitrile] | 116 | – | –
CCN(c1cc(F)c(C#N)c(F)c1)C1CCCC(n2ccnc2)C1 (single isomer, unassigned; diastereomer 4) [Ex. 12 cis-diastereomer] | 18 | – | –
CCN(c1ccc(C#N)c(C(F)(F)F)c1)C1CCC(c2cnc[nH]2)C1 (stereo not drawn) [Ex. 219, 4-((3-(1H-imidazol-5-yl)cyclopentyl)(ethyl)amino)-2-(trifluoromethyl)-benzonitrile] | 105 | – | –
CCN(c1ccc(C#N)c(C(F)(F)F)c1)C1CCCC(c2cnc[nH]2)C1 (stereo not drawn) [Ex. 224 cis-diasteromer, 4-((3-(1H-imidazol-5-yl)cyclohexyl)(ethyl)amino)-2-(trifluoromethyl)benzonitrile] | 59 | – | –
